In ChEMBL document CHEMBL4196106, “From Naproxen Repurposing to Naproxen Analogues and Their Antiviral Activity against Influenza A Virus” (J Med Chem, 2018) one finds IC50 and selectivity ratio data, which are given here for three compounds.

SMILES strings stand for the structures. pIC50: −log10 of the molar value.

Data set [1] has as its system Influenza A virus. Description: Antiviral activity against oseltamivir-resistant Influenza A virus (A/Puerto Rico/8/1934(H1N1)) infected in MDCK cells at MOI of 10^-3 assessed as decrease in viral load after 18 hrs by immunofluorescence analysis. The format is functional, organism-based.
Data set [2] is described as follows: Selectivity index, ratio of CC50 for MDCK cells to IC50 for oseltamivir-resistant Influenza A virus (A/Puerto Rico/8/1934(H1N1)) infected in MDCK cells at MOI of 10^-3 after 18 hrs. The format is toxicity, cell-based. As to conditions: dog, read-out: Ratio CC50/IC50.

By pIC50 is commonly meant the negative decadic logarithm of the IC50, by convention in mol/L. For `COc1ccc2cc(-c3c(C(=O)O)cc(Oc4ccc(N)cc4)cc3C(=O)O)ccc2c1`, the pIC50 in data set [1] is 5.10. For the same compound, the selectivity ratio at 18 h in data set [2] was found to be 1620.
For `COc1ccc2cc(-c3c(C(=O)[O-])cccc3C(=O)[O-])ccc2c1.[Na+].[Na+]` the same measures were 5.06 and 1480.
On to `COc1ccc2cc(-c3c(C(=O)[O-])ccc(Oc4ccc(N)cc4)c3C(=O)[O-])ccc2c1.[Na+].[Na+]`, for which the pIC50 in data set [1] was 6.00. Also, the selectivity ratio at 18 h in data set [2] amounted to 12000.
